In patent US9328138B2 (priority 2011, dated 2016):
Counter-ions that a name gives are not always drawn.

Experiments:
[1] = target: T1, HCV genotype 1b (BK) NS3 modified enzyme with a R155K mutation (Hepatitis C virus genotype 1b, UniProt P26663, R1181K); assay: HCV NS3 protease time-resolved fluorescence (TRF) assay, genotype 1b R155K; format: biochemical; settings: Ki 1b R155K
T1 construct: HCV genotype 1b (BK) NS3 modified enzyme
Summary of the method: (§1)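 IC50 values derive from 4-parameter fitting of TRF signal after a 6 h room-temperature cleavage of 25 nM peptide substrate by NS3/NS4A that had been pre-incubated 10 min with compound.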

[2] = target: HCV NS3 protease genotype 3a (3A-1) (Hepatitis C virus genotype 3a, UniProt Q81258); assay: HCV NS3 protease time-resolved fluorescence (TRF) assay, genotype 3a; format: biochemical; settings: Ki 3a
Summary of the method: as §1

[3] = genotype 1b (BK) NS3 R155K, single value

**Q.** What does the source list for `CC1(S(=O)(=O)NC(=O)[C@@]23C[C@H]2/C=C\CCCCC[C@@H]2NC(=O)O[C@@H]4C[C@H]4CCC/C=C/c4c(nc5ccccc5c4OCCCN4CCCC4)O[C@@H]4C[C@@H](C(=O)N3)N(C4)C2=O)CC1` [Example 303, (1aR,5S,11Z,12aS,13aR,16S,19R,27E, 31aR)-N-[(1-methylcyclopropyl)sulfonyl]-3,15,33-trioxo-26-[3-(pyrrolidin-1-yl)propoxy]-1,1a,3,4,5,6,7,8,9,10,12a,13,15,16,18, 19,29,30,31,31a-icosahydro-5,17:16,19-dimethanodicyclopropa[12,13:28,29] [1,20,3,14,17] dioxatriazacyclononacosino[21,22-b]quinoline-13a(14H)-carboxamide]?
**A.** Ki [1, 3]: 280 pM; Ki [2]: 3600 pM

**Q.** What does the source list for `C=C[C@@H]1C[C@]1(NC(=O)[C@@H]1C[C@@H]2CN1C(=O)[C@H](C1CCCC1)NC(=O)O[C@@H]1CCC[C@H]1CC/C=C/Cc1c(nc3ccccc3c1OCCn1cccn1)O2)C(=O)NS(=O)(=O)C1CC1` [Example 44, (3aR,7S,10S,12R,21E,24aS)-7-cyclopentyl-N-{(1R,2S)-1-[(cyclopropylsulfonyl)carbamoyl]-2-ethenylcyclopropyl}-5,8-dioxo-19-[2-(1H-pyrazol-1-yl)ethoxy]-1,2,3,3a,5,6,7,8,11,12,20,23,24,24a-tetra decahydro-10H-9,12-methanocyclopenta[18,19][1,10,3,6]dioxadiazacyclonona decino[11,12-b] quinoline-10-carboxamide]?
**A.** Ki [1, 3]: 250 pM; Ki [2]: 7900 pM

**Q.** `C=C[C@@H]1C[C@]1(NC(=O)[C@@H]1C[C@@H]2CN1C(=O)[C@H](C(C)(C)C)NC(=O)O[C@@H]1C[C@H]1CCCCCc1c(nc3ccccc3c1OCCCNC(C)C)O2)C(=O)NS(=O)(=O)C1(C)CC1` [Example 185, (1aR,5S,8S,10R,22aR)-5-tert-butyl-N-[(1R,2S)-2-ethenyl-1-{[(1-methylcyclopropyl)sulfonyl]carbamoyl}cyclopropyl]-3,6-dioxo-17-[3-(propan-2-ylamino)propoxy]-1,1a,3,4,5,6,9,10,18,19,20,21,22,22a-tetradecahydro-8H-7,10-methanocyclopropa[18,19][1,10,3,6] dioxadiazacyclononadecino[11,12-b] quinoline-8-carboxamide] was tested. Which Ki [1, 3] did it give?
**A.** 32 pM

**Q.** What about the Ki [2] of the same compound?
**A.** 360 pM

**Q.** Which Ki [1, 3] does the source give for `C=C[C@@H]1C[C@]1(NC(=O)[C@@H]1C[C@@H]2CN1C(=O)[C@H](C(C)(C)C)NC(=O)O[C@@H]1CCC[C@H]1CCCCCc1c(nc3ccccc3c1OCCN1CCOCC1)O2)C(=O)NS(=O)(=O)N1CCC1` [Example 107, (3aR,7S,10S,12R,24aR)-N-{(1R,2S)-1-[(azetidin-1-ylsulfonyl)carbamoyl]-2-ethenylcyclopropyl}-7-tert-butyl-19-[2-(morpholin-4-yl)ethoxy]-5,8-dioxo-1,2,3,3a,5,6,7,8,11,12,20,21,22,23,24,24a-hexadecahydro-10H-9,12-methanycyclopenta [18,19][1,10,3,6]dioxadiazacyclo nonadecino[11,12-b]quinoline-10-carboxamide] here?
**A.** 740 pM

**Q.** What about the Ki [2] of the same compound?
**A.** 23000 pM

**Q.** Which Ki [1, 3] does the source give for `C=C[C@@H]1C[C@]1(NC(=O)[C@@H]1C[C@@H]2CN1C(=O)[C@H](C(C)(C)C)NC(=O)O[C@@H]1CCC[C@H]1CC/C=C/Cc1c(nc3ccccc3c1OCCCN1CCCCC1)O2)C(=O)NS(=O)(=O)C1(C)CC1` [Example 59, (3aR,7S,10S,12R,21E,24aS)-7-tert-butyl-N-[(1R,2S)-2-ethenyl-1-{[(1-methylcyclopropyl)sulfonyl]carbamoyl}cyclopropyl]-5,8-dioxo-19-[3-(piperidin-1-yl)propoxy]-1,2,3,3a,5,6,7,8,11,12,20,23,24,24a-tetra decahydro-10H-9,12-methanocyclopenta[18,19][1,10,3,6] dioxadiazacyclononadecino[11,12-b] quinoline-10-carboxamide] here?
**A.** 110 pM

**Q.** What about the Ki [2] of the same compound?
**A.** 450 pM

**Q.** With `C=C[C@@H]1C[C@]1(NC(=O)[C@@H]1C[C@@H]2CN1C(=O)[C@H](C(C)(C)C)NC(=O)O[C@@H]1C[C@H]1CCCCCc1c(nc3ccccc3c1OCCCN(C)Cc1ncc(C)[nH]1)O2)C(=O)NS(=O)(=O)C1(C)CC1` [Example 201, (1aR,5S,8S,10R,22aR)-5-tert-butyl-N-[(1R,2S)-2-ethenyl-1-{[(1-methylcyclopropyl)sulfonyl]carbamoyl}cyclopropyl]-17-(3-{methyl[(5-methyl1H-imidazol-2-yl)methyl]amino}proopoxy)-3,6-dioxo-1,1a,3,4,5,6,9,10,18,19,20,21,22,22a-tetradecahydro-8H-7,10-methanocyclopropa[18,19][1,10,3,6] dioxadiazacyclononadecino[11,12-b] quinoline-8-carboxamide] as the compound, how does the Ki [1, 3] read?
**A.** 79 pM

**Q.** What about the Ki [2] of the same compound?
**A.** 1300 pM

**Q.** What does the source list for `C=C[C@@H]1C[C@]1(NC(=O)[C@@H]1C[C@@H]2CN1C(=O)[C@H](C1CCCC1)NC(=O)O[C@@H]1C[C@H]1CCCCCc1c(nc3ccccc3c1OC)O2)C(=O)NS(=O)(=O)C1CC1` [Example 28, (1aR,5S,8S,10R,22aR)-5-cyclo pentyl-N-{(1R,2S)-1-[(cyclopropylsulfonyl)carbamoyl]-2-ethenylcyclopropyl}-17-methoxy-3,6-dioxo-1,1a, 3,4,5,6,9,10,18,19,20,21,22,22a-tetradecahydro-8H-7,10-methanocyclopropa[18,19][1,10,3,6] dioxadiazacyclononadecino[11,12-b]quinoline-8-carboxamide]?
**A.** Ki [1, 3]: 700 pM; Ki [2]: 35000 pM

**Q.** For `C=C[C@@H]1C[C@]1(NC(=O)[C@@H]1C[C@@H]2CN1C(=O)[C@H](C(C)(C)C)NC(=O)O[C@@H]1CCC[C@H]1CC/C=C/Cc1c(nc3ccccc3c1OCCCN1CCCC1=O)O2)C(=O)NS(=O)(=O)C1(C)CC1` [Example 89, (3aR,7S,10S,12R,21E,24aS)-7-tert-butyl-N-[(1R,2S)-2-ethenyl-1-{[(1-methycyclopropyl)sulfonyl]carbamoyl}cyclopropyl]-5,8-dioxo-19-[3-(2-oxopyrrolidin-1-yl)propoxy]-1,2,3,3a,5,6,7,8,11,12,20,23,24,24a-tetradecahydro-10H-9,12-methano-cyclopenta[18,19][1,10,3,6]dioxa diazacyclononadecino[11,12-b] quinoline-10-carboxamide], which Ki [1, 3] is on record?
**A.** 70 pM

**Q.** And the Ki [2]?
**A.** 320 pM

**Q.** For `C=C[C@@H]1C[C@]1(NC(=O)[C@@H]1C[C@@H]2CN1C(=O)[C@H](C1CCCC1)NC(=O)N1CC[C@@H](C1)OCCC/C=C/Cc1c(nc3ccccc3c1OCC)O2)C(=O)NS(=O)(=O)C1CC1` [Example 16, (2R,4S,7S,13S,18E)-7-cyclopentyl-N-{(1R,2S)-1-[(cyclopropylsulfonyl)carbamoyl]-2-ethenylcyclo-propyl}-21-ethoxy-6,9-dioxo-3,4,6,7,8,9,12,13, 15,16,17,20-dodecahydro-2H,11H-2,5:10,13-dimethano[1,14,5,7,10]dioxatriazacyclodocosino [15,16-b]quinoline-4-carboxamide], which Ki [1, 3] is on record?
**A.** 1100 pM

**Q.** And the Ki [2]?
**A.** 70000 pM

**Q.** How did the Ki [1, 3] turn out when `C=C[C@@H]1C[C@]1(NC(=O)[C@@H]1C[C@@H]2CN1C(=O)[C@H](C(C)(C)C)NC(=O)O[C@@H]1C[C@H]1CCCCCc1c(nc3ccccc3c1OCCCN1CCC3(CCCC3)C1)O2)C(=O)NS(=O)(=O)C1(C)CC1` [Example 207, (1aR,5S,8S,10R,22aR)-17-[3-(2-azaspiro[4.4]non-2-yl)propoxy]-5-tert-butyl-N-[(1R,2S)-2-ethenyl-1-{[(1-methylcylcopropyl)sulfonyl]carbamoyl}cyclopropyl]-3,6-dioxo-1,1a,3,4,5,7,9, 10,18,19,20,21,22,22a-tetradecahydro-8H-7,10-methanocyclopropa[18,19][1,10,3,6] dioxadiazacyclononadecino[11,12-b] quinoline-8-carboxamide] was run?
**A.** 110 pM

**Q.** And the Ki [2]?
**A.** 1300 pM

**Q.** For `C=C[C@@H]1C[C@]1(NC(=O)[C@@H]1C[C@@H]2CN1C(=O)[C@H](C1CCCCC1)NC(=O)O[C@@H]1C[C@H]1CCCCCc1c(nc3ccccc3c1OC1CCN(CCOC)CC1)O2)C(=O)NS(=O)(=O)C1(C)CC1` [Example 237, 4-{[(1aR,5S,8S,10R,22aR)-5-cyclohexyl-8-{[(1R,2S)-2-ethenyl-1-{[(1-methylcyclopropyl)sulfonyl]carbamoyl}cyclopropyl]carbamoyl}-3,6-dioxo-1,1a,3,4,5,6,9,10,18,19,20,21,22,22a-tetradecahydro-8H-7,10-methanocyclopropa[18,19][1,10,3,6]dioxadiazacyclononadecino[11,12-b]quinolin-17-yl]oxy}-1-(2-methoxyethyl)piperidinium formate], which Ki ([1]; first of two values printed in the cell (not explained)) is on record?
**A.** 13 pM

**Q.** And the Ki ([1]; second of two values printed in the cell (not explained))?
**A.** 98 pM

**Q.** What about the Ki [2] of the same compound?
**A.** 800 pM

**Q.** How did the Ki [1, 3] turn out when `C=C[C@@H]1C[C@]1(NC(=O)[C@@H]1C[C@@H]2CN1C(=O)[C@H](C(C)(C)C)NC(=O)O[C@]1(C)C[C@H]1CCCCCc1c(nc3ccccc3c1OCCN1CCOCC1)O2)C(=O)NS(=O)(=O)C1(C)CC1` [Example 101, (1aR,5S,8S,10R,22aR)-5-tert-butyl-N-[(1R,2S)-2-ethenyl-1-{[(1-methylcyclopropyl)sulfonyl]carbamoyl}cyclopropyl]-1a-methyl-17-[2-(morpholin-4-yl)ethoxy]-3,6-dioxo-1,1,a, 3,4,5,6,9,10,18,19,20,21,22,22a-tetradecahydro-8H-7,10-methano-cyclopropa[18,19][1,10,3,6]dioxa diazacyclononadecino[11,12-b] quinoline-8-carboxamide] was run?
**A.** 90 pM

**Q.** What about the Ki [2] of the same compound?
**A.** 960 pM
